Entries after “also recorded” stand apart in the source; their conditions may differ. Where no end group is shown, it is not given here. The star is where a group is joined. Biotin = O=C1N[C@H]2[C@H](CS[C@H]2CCCCC(=O)*)N1; Ahx = NCCCCCC(=O)O
Experiments:
[1] = tested on: receptor:ligand complex (GH4 C1 membranes, [^125 I]Tyr11-S14); assay: Detergent solubilization of specifically bound [^125 I]Tyr11-S14 from GH4 C1 membranes and recovery of intact complex (FIGS. 2, 3); details: [^125 I]Tyr11-S14, FIG. 2
Description: (§1) To solubilize membranes, washed pellets after the binding step are resuspended free of visible particles by pipetting and vortexing in solubilization buffer+1/100 (vol/vol) of 100× 4Pase protease inhibitors+detergent at the desired concentration. After 1 hour on ice, the samples are centrifuged at 100,000×g for 30 minutes. The supernatants are removed and held on ice and the pellets are discarded.
(§2) Sephadex G-50 columns (8×130 mm) are equilibrated with solubilization buffer containing detergent at the concentration used to solubilize membranes and 1 mg/ml bovine serum albumin. 0.2-0.5 ml samples of solubilized membranes are applied to the columns and eluted at a flow rate of about 0.7 ml/minute. 0.18 ml samples are collected. Radioactivity is determined in a gamma counter as described under "Receptor Binding Methods". Void volumes of the columns are determined by the elution volume of blue dextran. Radioactivity eluting in the void volume (>50,000 MW) was considered bound to protein. […] The mixture is held on ice for 15 minutes. Then 3 ml of 0.1M sodium phosphate (pH 7.4) is added to a final part of 4 ml per sample and the samples are rapidly (1-3 seconds) filtered over Whatman GF/B glass fiber filters and washed with 4 ml of the phosphate buffer. […] Whatman GF/B glass fiber filters are soaked in 0.3% polyethyleneimine (PEI, Sigma) for 3 hours. 25-100 ul samples of solubilized membranes are placed in 12×75 mm polypropylene tubes. Then 4 ml of solubilization buffer (without detergent) is added per sample and the samples are immediately filtered through the GFB/PEI filters (1-3 seconds) and washed with 4 ml of solubilization buffer. […] 0.5 gm of Dextran T70 (Pharmacia) is dissolved in 1 liter of water and then 5 gm of activated charcoal (Norit A, alkaline; Fisher Scientific) is added. The suspension is stirred for 10 minutes at room temperature and then stored at 4° C. until use. To measure R:L complex, 4 parts by volume of charcoal/dextran suspension are added to 1 part by volume of solubilized membrane. The samples are mixed and held on ice for 2 minutes and then centrifuged for 2 minutes at 11,000×g in a Beckman microfuge. Free radioligand is adsorbed to charcoal/dextran and is discarded with the pellet.

streptavidin = assay: Effect of detergent on binding of solubilized R:L complex to streptavidin (Table 2B); details: for % of original R:L complex bound to SA: % R:L bound to SA × % solubilization of original R:L complex; for % of intact R:L nonbound to SA in 5 hours: streptavidin-agarose, charcoal/dextran assay
Description: The final determination is whether the detergent interferes with binding of the receptor:[^125 I]BioS-28. […] R:L complex in the supernatants ("non-bound to SA") after this time is measured by the charcoal/dextran assay. The % of non-bound, intact R:L complex is calculated from the ratio (R:L non-bound to SA/original R:L in the 100,000×g supernatant). The % of intact R:L complex bound to SA is calculated by subtracting % non-bound R:L from 100%. Finally, % of original R:L bound to SA=% R:L bound to SA×% solubilization of original membrane-bound R:L complex.

[2] = biological target: receptor:ligand complex (GH4 C1 membranes, [^125 I]BioS28) (Rattus norvegicus, UniProt P30680); assay: Detergent solubilization of receptor:[^125 I]BioS28 complex, charcoal/dextran assay (Table 2A); details: for Solubilization of specifically bound CPM (%): based on 14,013 cpm specifically bound [^125 I]BioS28 per sample; for Solubilized CPM in intact R:L complex (%): charcoal/dextran method; for solubilization and stabilization of receptor:ligand complex: [^125 I]BioS28, Table 2A
Description: as §1, §2
Membrane solubilization is conducted as already described; however, determination of the presence of the intact receptor:ligand complex in the 100,000×g supernatant is accomplished by charcoal/dextran assay ("Methods: Assay of Solubilized, 4.").

[3] = biological target: T1, SRIF receptor (GH4 C1 membranes) (Rattus norvegicus, UniProt P30680); assay: Competitive radioligand binding vs [^125 I]Tyr11-S14 on GH4 C1 membranes (FIG. 4); details: for IC50: vs [^125 I]Tyr11-S14, 20 ug GH4 C1 membrane protein, 100,000 cpm (FIG. 4B)
T1 construct: GH4 C1 rat pituitary tumor cells; endogenous in cells; host or cells: GH4 C1 rat pituitary tumor cells (isolated membranes)
T1 sequence (P30680 whole entry): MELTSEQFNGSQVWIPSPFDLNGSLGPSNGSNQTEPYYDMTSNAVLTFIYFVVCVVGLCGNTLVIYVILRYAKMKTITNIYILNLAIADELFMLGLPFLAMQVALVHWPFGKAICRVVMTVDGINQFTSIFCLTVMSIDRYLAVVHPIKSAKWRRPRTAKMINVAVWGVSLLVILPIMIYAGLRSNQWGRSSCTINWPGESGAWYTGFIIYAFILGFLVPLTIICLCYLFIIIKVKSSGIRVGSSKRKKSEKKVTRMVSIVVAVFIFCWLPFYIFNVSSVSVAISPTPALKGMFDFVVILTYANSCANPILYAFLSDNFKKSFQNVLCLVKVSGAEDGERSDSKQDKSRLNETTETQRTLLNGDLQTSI
Description: Membrane Isolation--1-8 liter batches of cells at densities of 6-10×10^5 cells/ml are pelleted in conical bottom glass centrifuge bottles (600 or 800 ml; Bellco) at 1,000× g for 5 min. The supernatants are carefully poured off and the cells are resuspended in ice cold homogenization medium (1 mM Na-bicarbonate at pH 7.6, 1 mM EDTA and 1 mM EGTA) containing 0.7% (vol/vol) of the "100×4pase" protease inhibitor cocktail (see below). Twenty ml of homogenization medium is used for every liter of suspension culture. After 5 min. on ice, the hypotonically swollen cells are homogenized with 10 strokes of a tight fitting Dounce homogenizer (Kontes, type A pestle). The homogenate is centrifuged at 1,000× g for 10 min. and the supernatant is removed and kept on ice. The 1,000× g pellet containing residual intact cells, nuclei and DNA is washed by gently homogenizing with 4 strokes with a type B pestle in one half the original volume of homogenization medium and recentrifuging for 10 min. at 1,000× g. The final 1,000× g pellet consists mostly of DNA and is discarded. The 1,000× g supernatants are combined and centrifuged at 20,000× g for 30 min. The 20,000× g pellet is washed twice in 25 mM Tris (pH 7.4), with centrifugation for 25 min. at 20,000 2 g. Final membrane pellets are resuspended in 25 mM Tris buffer to concentrations of 4-10 mg membrane protein/ml. Then the 100× 4pase protease inhibitor cocktails are added to 1% of final volume and aliquots are frozen on dry ice. Membranes are stored at -90° C. until needed. Membrane protein is assayed with the Bradford dye binding assay (Bio-Rad).
Standard Binding Assays--Binding assays are done in a binding buffer containing 50 mM HEPES (pH 7.4), 0.5% BSA and 5 mM MgCl2. The standard assay for [^125 I]SRIF analog binding to GH4 CL membranes, done in 96 well microtiter plates (Dynatech Immulon II Removawell plates), is carried out as follows: 1. Radioligand is diluted in binding buffer+PMSF/Baci to the desired cpm per vol. of 50 μl and then 50 μl aliquots are added to the wells. For non-specific binding samples, 5 μl of 40 μM cold S14 is also added per well. […] Binding is initiated by adding 150 μl per well of membrane diluted to the desired concentration (10-30 ug membrane protein/well) in binding buffer+PMSF/Baci. Plates are then covered with Linbro mylar plate sealers (Flow Labs) and placed on a Dynatech Microshaker II and binding is allowed to proceed at room temperature for 1-2 hours. Binding is stopped by centrifuging the plate for 15 minutes at 2,000×g. The supernatants are dumped off and membrane pellets washed once by addition of 200 μl of ice cold binding buffer, brief shaking and recentrifugation. Finally the individual wells are placed in 12×75 mm tubes and counted in an LKB Gammamaster counter (78% efficiency). […]

Sequence of receptor:ligand complex (GH4 C1 membranes, [^125 I]BioS28) (P30680 whole entry, one chain of several): as the sequence (P30680 whole entry) above

Row | Molecule | solubilization of receptor:ligand complex / bound radioligand [1] | % of intact R:L bound to SA (100% - A) (streptavidin) [%] | % of original R:L complex bound to SA (streptavidin) [%] | % of intact R:L nonbound to SA in 5 hours (streptavidin) [%] | % Solubilization of original R:L in membranes (A × B) [2] [%] | Solubilization of specifically bound CPM (%) [2] [%] | Solubilized CPM in intact R:L complex (%) [2] [%] | solubilization and stabilization of receptor:ligand complex [2] | potency relative to S14 in competitive binding assay ([3]; % the potency of S14, 40 ug membrane protein, 85,000 cpm (FIG. 4A)) | IC50 [3] [nM]
1 | C[C@H](CCC(=O)NCCC[N+](C)(C)CCCS(=O)(=O)[O-])[C@H]1CC[C@H]2[C@@H]3[C@H](O)C[C@@H]4C[C@H](O)CC[C@]4(C)[C@H]3C[C@H](O)[C@]12C [CHAPS] | total solubilization of radioligand is relatively low; also recorded: did not solubilize well at all at any concentration tested | 56 | 7 | 44 | 12 | 38 | 32 |  |  | 
2 | C[C@H](CCC(=O)O)[C@H]1CC[C@H]2[C@@H]3CC[C@@H]4C[C@H](O)CC[C@]4(C)[C@H]3C[C@H](O)[C@]12C [Deoxycholate] | superior solubilization | 89 | 29 | 11 | 31 | 93 | 33 | satisfactory results |  | 
3 | C[C@@H]1CC[C@@]2(OC1)O[C@H]1[C@@H](O)[C@H]3[C@@H]4CC[C@H]5C[C@@H](O[C@@H]6O[C@H](CO)[C@H](O[C@@H]7O[C@H](CO)[C@@H](O)[C@H](O[C@@H]8OC[C@@H](O)[C@H](O)[C@H]8O)[C@H]7O[C@@H]7O[C@H](CO)[C@H](O)[C@H](O[C@@H]8O[C@H](CO)[C@@H](O)[C@H](O)[C@H]8O)[C@H]7O)[C@H](O)[C@H]6O)[C@H](O)C[C@]5(C)[C@H]4CC[C@]3(C)[C@H]1[C@@H]2C [Digitonin] | less satisfactory but adequate levels of solubilization | 87 | 24 | 13 | 28 | 55 | 50 | satisfactory results |  | 
4 | Biotinyl-NH--SRIF14 [Bio-S14] |  |  |  |  |  |  |  |  | about 1.5% | 
5 | Biotinyl-[NH--(CH2)5 --CO]2 --NH-(Tyr11)SRIF14 ({Biotin-Ahx-Ahx}-AGCKNFFWKTYTSC; ends and bridges not checked; UniProt P61278 103-116, looked up, variant F11Y) [Bio-12C-S14] |  |  |  |  |  |  |  |  |  | 2
6 | Biotinyl-[NH--(CH2)5 --CO]--NH-(Tyr11)SRIF14 ({Biotin-Ahx}-AGCKNFFWKTYTSC; ends and bridges not checked; UniProt P61278 103-116, looked up, variant F11Y) [Bio-6C-S14] |  |  |  |  |  |  |  |  |  | 2
7 | Lysolecithin | less satisfactory but adequate levels of solubilization | 36 | 16 | 65 | 33 | 73 | 46 | satisfactory results |  | 
